Source: US12138256B2, “Treatment of cardiopulmonary disorders” (Bayer Aktiengesellschaft, priority 2021, dated 2024)
“And” between values parts separate entries of the source, which are not always exact repeats. Equal entries are not always repeated.

Legend:
[1] = test system: isolated Langendorff-perfused rat heart; assay: Isolated perfused heart according to Langendorff: perfusion pressure and wash-out score (C-1.2); conditions: 100 nmol/l; for Perfusion pressure (%) (timepoint at 20 min) Mean: isolated Langendorff-perfused rat heart; for Perfusion pressure (%) (timepoint at 90 min) Mean: wash-out phase
Description: Male Wistar rats (strain HsdCpb:WU) with a body weight of 200-250 g were anaesthetized with Narcoren® (100 mg/kg). The thorax was opened and the heart was then exposed, excised and connected to a Langendorff apparatus by placing a cannula into the aorta. The heart was perfused retrogradely at 9 ml/min at constant flow with a Krebs-Henseleit buffer solution (gassed with 95% O2 and 5% CO2, pH 7.4, 35° C.; composition in mmol/l: NaCl 118; KCl 3; NaHCO3 22; KH2PO4 1.2; MgSO4 1.2; CaCl2 1.8; Glucose 10; Na pyruvate 2). A pressure transducer registered the perfusion pressure in the perfusion system. The left ventricular pressure (LVP) was measured using a second pressure transducer connected to a water-filled balloon which was inserted into the left ventricle via the left atrium. The end diastolic pressure was initially set to 8 mm Hg by adjusting the volume of the balloon. The hearts were spontaneously beating. The signals from the pressure transducer were amplified, registered by a personal computer (Powerlab Chart software, ADInstruments).
Then the hearts were perfused for a further 120 min without the test substance (wash-out phase). The reversibility of the effect (wash-out score) was calculated as a percentage of the PP recovery after 60 min of washout related to the maximum drop of PP induced by the test compound. The wash-out score obtained in this manner was taken as a measure for the residence time of the test substance at the site of action.

[2] = test system: thromboxane analog U46619 induced PAH in minipigs; assay: Haemodynamics (PAP, BP) in the anesthetized thromboxane challenged PAH minipig after inhaled (nebulized) application (C-2.1); type: in vivo, Göttingen minipig
Description: Experiments were carried out in anesthetized Göttingen minipigs, anesthetized rats and conscious, telemetrically instrumented dogs. Acute pulmonary hypertension was induced for example by infusion of a thromboxane A2 analogon, by acute hypoxia treatment or hypoxia treatment over a number of weeks and/or by administration of monocrotaline. Test substances were applied via nebulization using the Nebutec® or Aeroneb® Pro nebulizer system, and/or by means of powder and/or solution applicators for experimental intratracheal administration (Liquid MicroSprayer®, Dry Powder Insufflator™, MicroSprayer®, Penn-Century Inc., Wyndmoor, PA, USA) or after solid nebulization inserted into the inspiration arm of the ventilation. Compounds were employed as solids or solutions depending on the molecular structure and the technical possibility depending on the experiment. The haemodynamic signals were recorded and evaluated by means of pressure transducers/amplifiers (Combitransducer B. Braun, Melsungen, Germany or CardioMEMS Inc., Atlanta, GA, USA) and Ponemah® or CardioMems® as data aquisition software. After long-term experiments (for example monocrotaline rat), it is also possible to carry out a histological evaluation.
Healthy Gottingen Minipigs® Ellegaard (Ellegaard, Denmark) of both sexes and having a weight of 2-6 kg were used. The animals were sedated by i.m. administration of about 25 mg/kg ketamine and about 10 mg/kg azaperone. Anaesthesia was initiated by i.v. administration of about 2 mg/kg ketamine and about 0.3 mg/kg midazolam. Maintenance of anaesthesia was by i.v. administration of about 7.5-30 mg/kg/h ketamine and about 1-4 mg/kg/h midazolam (rate of infusion 1-4 ml/kg/h) and about 150 μg/kg/h pancuronium bromide (for example Pancuronium-Actavis). After intubation, the animals were ventilated by the ventilator at a constant respiratory volume (10-12 ml/kg, 35 breaths/min; Avea®, Viasys Healthcare, USA, or Engstrom Carestation, GE Healthcare, Freiburg, Germany) such that an end-tidal CO2 concentration of about 5% was achieved. Ventilation was performed with room air, enriched with about 40% oxygen (normoxia). For the measurement of the haemodynamic parameters such as pulmonary arterial pressure (PAP), blood pressure (BP) and heart rate (HR), catheters were inserted into the carotid artery to measure the blood pressure, and a Swan-Ganz® catheter was introduced in a flow-directed manner via the jugular vein into the pulmonary artery. The haemodynamic signals were recorded and evaluated by means of pressure transducers (Combitransducer, B. Braun, Melsungen, Germany)/amplifiers and Ponemah® as data aquisition software.
After the instruments have been placed into the animals, continuous infusion of a thromboxane A2 analog was initiated to increase the pulmonary arterial pressure. […] D0400, or Cayman Chemical Company, cat. no. 16440), dissolved in physiological saline, were infused to achieve an increase of the mean pulmonary arterial pressure to values of over 25 mmHg. 30 minutes after the start of the infusion, a plateau was reached, and the experiment was started.
The test substances were administered as i.v. infusion or by inhalation. For the preparation of the solution for inhalation, the following procedure was adopted: For an animal having a weight of 4 kg, to prepare the stock solution (300 μg/kg), 1.2 mg of the test compound were weighed out and dissolved in a total volume of 3 ml (1% DMSO, 99% 0.2% strength citric acid solution, 1 N aqueous sodium hydroxide solution to adjust the pH to 8). The solution was then diluted to the concentration employed using 0.2% strength citric acid which had been adjusted to pH 8 beforehand with aqueous sodium hydroxide solution. In each test, 3 ml of the solution of test compound per 4 kg animal were nebulized in the inhalation arm of the respiratory circuit using the Aeroneb® Pro nebulizer system. The mean nebulization time was about 7 min from the start of the nebulization.

[3] = Particle size distribution by laser diffraction with dry dispersion; type: physicochemical; conditions: after micronization, dry measurement (3 or 4 bar)
Description: All measurements cited in the above tables were obtained by laser diffraction with dry dispersion using compressed air. Measuring in aqueous suspension with surfactants may lead to smaller particle sizes (×90 up to 1 μm smaller).
The particle size analysis data are usually reported as cumulative undersized distribution by volume. The symbol x is used to denote the particle size, which is defined as diameter of a volume equivalent sphere. Most common characteristic values are calculated from the particle size distribution by interpolation. Frequently used are the particle sizes at the undersize values of 10%, 50% and 90% of the volume distribution, denoted as x10, x50 and x90. x50 is also known as median particle size. The symbol d is widely used to designate the particle size, thus the symbol x may be replaced by the symbol d.

[4] = test system: thromboxane analog U46619 induced PAH in minipigs; assay: PAH minipig model: comparison with and on top of standard of care (bosentan, sildenafil, riociguat); type: in vivo, Göttingen minipig
Text: Efficacy of inhaled comparative example 11 was compared with systemically applied bosentan, sildenafil and riociguat (see FIG. 53a) in the PAH minipig model. […] Therefore inhaled application of comparative example 11 offers clear benefits as systemic effects are avoided, compared to standard of care.

[5] = inhaled 3μg/kg, 0 min vs. start inhalation
[6] = inhaled 3μg/kg, 10 min vs. start inhalation
[7] = inhaled 3μg/kg, 20 min vs. start inhalation
[8] = inhaled 3μg/kg, 30 min vs. start inhalation
[9] = inhaled 3μg/kg, 40 min vs. start inhalation
[10] = inhaled 3μg/kg, 50 min vs. start inhalation
[11] = inhaled 3μg/kg, 60 min vs. start inhalation
[12] = inhaled 3μg/kg, 70 min vs. start inhalation
[13] = inhaled 3μg/kg, 80 min vs. start inhalation
[14] = inhaled 3μg/kg, 90 min vs. start inhalation
[15] = inhaled 3μg/kg, −5 min vs. start inhalation
[16] = inhaled 100 μg/kg, 0 min vs. start inhalation
[17] = inhaled 100 μg/kg, 10 min vs. start inhalation
[18] = inhaled 100 μg/kg, 20 min vs. start inhalation
[19] = inhaled 100 μg/kg, 30 min vs. start inhalation
[20] = inhaled 100 μg/kg, −5 min vs. start inhalation
[21] = Sildenafil 300 μg/kg/h systemically applied, % change per animal

Compound: O=C(O)CCCCN(CCc1ccccc1OCc1ccc(CCc2ccccc2)cc1)Cc1ccc(C(=O)O)cc1 [Cinaciguat (comparative example 1)]
- Wash-out score (%) after 60 min [1]: 29.5%
- Perfusion pressure (%) (timepoint at 20 min) Mean [1]: 62.1%
- Perfusion pressure (%) (timepoint at 90 min) Mean [1]: 69.3%
- % changes in BP vs baseline [2, 5]: 100% and 99%
- % changes in PAP vs baseline [2, 5]: 99%
- % changes in BP vs baseline [2, 6]: 91% and 89%
- % changes in PAP vs baseline [2, 6]: 101% and 100%
- % changes in BP vs baseline [2, 7]: 76% and 82%
- % changes in PAP vs baseline [2, 7]: 99% and 98%
- % changes in BP vs baseline [2, 8]: 74% and 86%
- % changes in PAP vs baseline [2, 8]: 98%
- % changes in BP vs baseline [2, 9]: 73% and 89%
- % changes in PAP vs baseline [2, 9]: 97% and 98%
- % changes in BP vs baseline [2, 10]: 82% and 94%
- % changes in PAP vs baseline [2, 10]: 97% and 98%
- % changes in BP vs baseline [2, 11]: 88% and 94%
- % changes in PAP vs baseline [2, 11]: 97% and 99%
- % changes in BP vs baseline [2, 12]: 100% and 99%
- % changes in PAP vs baseline [2, 12]: 97% and 100%
- % changes in BP vs baseline [2, 13]: 103% and 100%
- % changes in PAP vs baseline [2, 13]: 95% and 98%
- % changes in BP vs baseline [2, 14]: 105% and 102%
- % changes in PAP vs baseline [2, 14]: 95% and 99%
- % changes in BP vs baseline [2, 15]: 100%
- % changes in PAP vs baseline [2, 15]: 100%
- % changes in PAP vs baseline ([2]; inhaled 10 μg/kg, 0 min vs. start inhalation): 100% and 101%
- % changes in PAP vs baseline ([2]; inhaled 10 μg/kg, 10 min vs. start inhalation): 100%
- % changes in PAP vs baseline ([2]; inhaled 10 μg/kg, 20 min vs. start inhalation): 96% and 100%
- % changes in PAP vs baseline ([2]; inhaled 10 μg/kg, 30 min vs. start inhalation): 94% and 100%
- % changes in PAP vs baseline ([2]; inhaled 10 μg/kg, 40 min vs. start inhalation): 95% and 98%
- % changes in PAP vs baseline ([2]; inhaled 10 μg/kg, 50 min vs. start inhalation): 94% and 96%
- % changes in PAP vs baseline ([2]; inhaled 10 μg/kg, 60 min vs. start inhalation): 95% and 94%
- % changes in PAP vs baseline ([2]; inhaled 10 μg/kg, 70 min vs. start inhalation): 93% and 94%
- % changes in PAP vs baseline ([2]; inhaled 10 μg/kg, 80 min vs. start inhalation): 94% and 92%
- % changes in PAP vs baseline ([2]; inhaled 10 μg/kg, 90 min vs. start inhalation): 93% and 89%
- % changes in PAP vs baseline ([2]; inhaled 10 μg/kg, −5 min vs. start inhalation): 100%

Compound: COC(=O)N(C)c1c(N)nc(-c2nn(Cc3ccccc3F)c3ncccc23)nc1N [Riociguat (comparative example 2)]
- Wash-out score (%) after 60 min [1]: 98.0%
- Perfusion pressure (%) (timepoint at 20 min) Mean [1]: 55.4%
- Perfusion pressure (%) (timepoint at 90 min) Mean [1]: 99.9%
- % changes in BP vs baseline [2, 16]: 100% and 102%
- % changes in PAP vs baseline [2, 16]: 99%
- % changes in BP vs baseline [2, 17]: 91% and 86%
- % changes in PAP vs baseline [2, 17]: 95% and 92%
- % changes in BP vs baseline [2, 18]: 91% and 85%
- % changes in PAP vs baseline [2, 18]: 94% and 90%
- % changes in BP vs baseline [2, 19]: 94%
- % changes in PAP vs baseline [2, 19]: 94% and 90%
- % changes in BP vs baseline [2, 20]: 100%
- % changes in PAP vs baseline [2, 20]: 99% and 101%

Compound: O.O=C(O)c1ccc(CCN(CCc2ccccc2OCc2ccc(-c3ccc(C(F)(F)F)cc3)cc2Cl)[C@H]2CCCc3nc(C(=O)O)ccc32)cc1 [example 8b]
- PSD X10 [3]: X10: 0.7 μm,
- PSD X50 [3]: X50: 1.9 μm,
- PSD X90 [3]: X90: 5.0 μm

Compound: O.O=C(O)c1ccc(CCN(CCc2ccccc2OCc2ccc(-c3ccc(C(F)(F)F)cc3)cc2Cl)[C@H]2CCCc3nc(C(=O)O)ccc32)cc1 [example 8e]
- PSD X10 [3]: X10: 0.7 μm,
- PSD X50 [3]: X50: 2.1 μm,
- PSD X90 [3]: X90: 6.1 μm

Compound: CCCc1nn(C)c2c(=O)[nH]c(-c3cc(S(=O)(=O)N4CCN(C)CC4)ccc3OCC)nc12 [sildenafil, reference compound]
- BP decrease % [4, 21]: −10.6% and −6.1% and −14.5%
- PAP decrease % [4, 21]: −15.3% and −34.3% and −16.1%
- effects on PAP and BP ([4]; bosentan 1 mg/kg, sildenafil 300 μg/kg/h, riociguat 3 μg/kg/h systemically, comparative example 11 30 and 100 μg/kg inhaled): decreases in both PAP and BP

Compound: Ethyl 5-{[2-(2-{[3-chloro-4′-(trifluoromethyl)biphenyl-4-yl]methoxy}phenyl)ethyl]amino}-5,6,7,8-tetrahydroquinoline-2-carboxylate [example 8a]
- PSD X10 [3]: X10: 0.4 μm,
- PSD X50 [3]: X50: 1.7 μm,
- PSD X90 [3]: X90: 4.2 μm
